Results: patent US12264142B2, “Heterocyclic compounds” (FLORATEK PHARMA SA, priority 2019, dated 2025)
“Also recorded” adds a separate entry of the source.

Assays:
[1] = test system: C. elegans; assay: Life span assay on Automated Lifespan Machine (SND302, SND303); format: in vivo; conditions: for Maximum life span: average lifespan of the ten longest-lived worms; for Age in days at 25% mortality / Age in days at 50% mortality / Age in days at 75% mortality / Age in days at 90% mortality / Age in days at 100% mortality: SND302, SND303 25 μM, Uro A, Resveratrol 50 μM
Description: An additional life span assay using an adapted standard protocol employed and published by the C. elegans Intervention Testing Program, or CITP was employed to assess the activity of SND302 and SND303. A positive and a negative control were included in the assay. In a preliminary experiment the optimal conditions for the life span analysis was determined and the stress level induced by the compounds as well as toxicity were measured.
For the life span assay over 300 worms per conditions were used and the study was conducted by InVivoBiosystems (USA) using an Automated Lifespan Machine (ALM) with proprietary modifications to improve temperature stability and image acquisition.
To prevent chemical modification or metabolism of the test article by the food bacteria, worms were fed on a lawn of UV-killed bacteria (UV-i bacteria). An overnight culture of E. coli strain WP-2 was pelleted, washed, filtered, and irradiated. A suspension of UV-i bacteria was spotted on NGM agar containing Streptomycin to inhibit growth of contaminating bacteria. The quantity and distribution of food bacteria was calibrated to ensure adequate access to food for the duration of assay while maintaining visibility of the worms.
Test article was delivered to worms by a method compatible with and previously validated on the Automated Lifespan Machine and used by the CIT [Lucanic, et. al. Impact of genetic background and experimental reproducibility on identifying chemical compounds with robust longevity effects. Nature Communications 8 (2017)]. A 200× stock solution was freshly prepared in DMSO immediately before application. 40 μl of DMSO stock (0.5% plate volume) was applied to the plate to coat the food bacteria and then chased immediately with 160 μl water to uniformly distribute a fine precipitate across the surface of the plate. This functioned to provide reservoirs of compound in food, agar, and agar surface.
The ALM used by InVivoBiosystems is based on the Caenorhabditis elegans lifespan machine published by Stroustrup, N. et al. The Caenorhabditis elegans Lifespan Machine. N at Methods 10, 665-670 (2013), with proprietary modifications to improve temperature stability and image acquisition. The scanner unit consists of a modified EPSON V850 and images are processed and analyzed using the ALM software 7. The machine time-of-death calls are trained and validated using the “storyboarding” feature of the ALM software.
The lifespan assay was designed and performed according to published and validated methods, Amrit, F. R. G., Ratnappan, R., Keith, S. A. & Ghazi, A. The C. elegans lifespan assay toolkit. Methods 68, 465-475 (2014); Lucanic, et. al. Manual Lifespan Assay Standard Operating Procedure. Caenorhabditis Intervention Testing Program https://figshare.com/articles/7_CITP_SOP_Manual_Lifespan_Assay/9738197/1. using a modified version of the Automated Lifespan Machine. Worms were age synchronized by bleaching and eggs were plated directly onto NGM agar seeded with UV-I bacteria (Day 1, hatch). On Day 3, when the worms had reached the late L4 stage, they were transferred to dishes containing 100 μM 5-Fluorodeoxyuridine (FUdR) to suppress progeny. On day 5, the worms were washed off the dishes and 30-50 worms were plated on each scanner dish. Plates were immobilized inverted on the bed of an Automated Lifespan Machine which scanned two images per hour of the plates continuously for the next 40 days.
Time of death calls exported from the ALM software were analyzed and plotted using the Lifelines software package developed by Davidson-Pilon, (2019). lifelines: survival analysis in Python. Journal of Open Source Software, 4(40), 1317.

[2] = test system: human hepatocytes; assay: Cell viability (ATP content) in primary human hepatocytes; format: cell-based; conditions: 1 to 100 μM, 24 h exposure, pooled human hepatocytes
Description: (§1) Cytotoxicity potency of test compound SND301 was assayed in human hepatocytes from pooled donor lots at three concentrations; 1, 10 and 100 μM. Cytotoxicity was assayed from medium samples after 24 h exposure period with test compounds by measuring membrane integrity (LDH leakage), coupled to fluorescent signal. In parallel, cell viability was assayed by the means of ATP content, indicating the metabolically competent cell activity. ATP content was measured based on luciferase catalysed reaction generating stable bioluminescent signal. Cytotoxic positive control compound was used: chlorpromazine at 5-250 μM.
(§2) Cryopreserved human hepatocytes from pooled donor lot (Bioreclamation IVT) were seeded on collagen I coated 96-well plates (Corning Biocoat) at 0.55×10^5 cells per well in 120 μl InVitroGRO™ CP medium (BioIVT), including additives Torpedo Antibiotic mix (BioIVT). […] Cytotoxicity and cell viability were evaluated based on LDH release in medium and ATP content in the cells after 24 hours exposure phase.
The remaining medium and cells were used for the assessment of metabolically competent cells (ATP) according to the manufacturer's (Promega) protocol. […] The samples were transferred to white opaque-walled 96-well plate (Corning #3610) after which measured with plate reader for luminescence.
(§3) Both LDH and ATP assays were measured 1-2 hours post treatment with assay components.

[3] = test system: human hepatocytes; assay: Cytotoxicity (LDH leakage, membrane integrity) in primary human hepatocytes; format: cell-based; conditions: 1 to 100 μM, 24 h exposure, pooled human hepatocytes
Description: as §1, §2
After 24 h exposure half of the culture medium (50 μl) was transferred to black opaque-walled 96-well plate (Corning #3603) for LDH measurements and allowed to settle to room temperature. […] Thereafter the samples were analysed with plate reader for fluorescence (LDH; 560ex, 590em).
as §3

[4] = test system: N2 wild type strain of worms; assay: Toxicity and food avoidance test in worms (SND301); format: in vivo, C. elegans; conditions: concentrations up to 50 μM, from embryo to first day of adulthood
Description: In a first stage of this study, normal worms were treated with various concentrations of SND301 to test toxicity and food avoidance.
To test food avoidance worms were placed on agar plates containing a grid of alternating control and compound-containing food spots. The number of worms on each food spot was recorded every two hours.

[5] = test system: N2 wild type strain of worms; assay: C. elegans life span (survival) assay, manual scoring (SND301); format: in vivo; conditions: for Death events / Maximum life span / Median lifespan: SND301 and Urolithin A 50 μM; for % Complete: deaths attributed to aging from total worm population
Description: The survival assay was conducted in the presence of 50 μM SND301 with measurements of live, dead, and censored worms at time points every 2-3 days from the start of adulthood.
Thioflavin T was used in the assay as a positive control [Gamir-Morralla A et al, 2019, “Effects of Thioflavin T and GSK-3 Inhibition on Lifespan and Motility in a Caenorhabditis elegans Model of Tauopathy”, J Alzheimers Dis Rep., 3(1): 47-57]. Vehicle 25% and 1% DMSO were used as controls and represent the vehicles in which compounds and bacteria or bacteria alone respectively were resuspended. The final DMSO concentration in the agar plates was 0.5% and 0.02% respectively.
5 mM DMSO stock solutions for each compound were prepared in high-grade DMSO. Stocks were protected from light and stored in glass vials at 21° C. in a temperature-controlled room (to avoid freeze/thaw of DMSO). A fresh stock was prepared at the start of each experiment and stored for <1 week.
The lifespan assay was designed and performed according to published and validated methods with modifications for chemical treatment [Amrit F R G et al, 2014, “The C. elegans lifespan assay toolkit”, METHODS 68, 465-475; Leukanic, et. Al, “Manual Lifespan Assay Standard Operating Procedure”, Caenorhabditis Intervention Testing Program, https://figshare.com/articles/7_CITP_SOP_Manual_Lifespan_Assay/9738197/1]. Plates were seeded with compound dissolved in 25% DMSO and bacteria. The DMSO diffused through the agar to reach a final concentration of 0.5%. Synchronized day 1 adult worms were transferred to seeded plates containing compound and allowed to lay eggs for 2 hours (Day 0, “hatchoff”). The young adults were then removed, and the eggs were incubated at 20° C. until they had reached the young adult stage (day 3). 200 young adult worms per treatment were transferred to 8 fresh seeded 35 mm dishes with compound and 50 μM 5-Fluorodeoxyuridine to suppress progeny. […] Worms that were missing, stuck to the dish, burrowed, injured, or exploded were scored as censored and removed from the plate. To maintain chemical exposure at the experimental concentrations, worms were transferred every other scoring day to new seeded plates with compound.

[6] = test system: C. elegans gene expression; assay: Whole transcriptome analysis (RNA-Seq) of treated worms; format: in vivo; conditions: for Significant differentially-expressed genes: 25 μM
Description: To determine the mode of action for SND302 and SND303 the gene transcription in young and aged adults was analyzed by RNA-Seq (whole transcription analysis). For each condition, >300 worms were treated in parallel with the lifespan assay and maintained under identical conditions.
Differential gene expression was performed with EdgeR using […] likelihood ratio tests based on fitting linear models. The likelihood ratios were used to determine the p-values which were subsequently corrected for using the BH false discovery rate (fdr) method. Eventually, differential expressed genes were defined as genes with fdr-corrected p-value of 0.05 or lower, as well as a change in expression of at least 2-fold in a given between-group comparison. Compounds SND302 and SND303 were compared against Urolithin and Vehicle control. […] In general the transcriptomic data corroborates a differential effect for SND303 when compared to SND302 (FIGS. 1-4).
Worms for RNA-Seq were split from the same synchronized pool of worms for the lifespan with each of the three replicates being maintained and treated in parallel. More than 150 worms per replicate were harvested, cleaned by filtration, and frozen at −80° in Trizol. To extract RNA, samples were thawed, vigorously vortexed, and processed using the Direct-zol RNA Miniprep Kit (Zymo Research). All samples exceeded our threshold for RNA quantity and quality. RNA samples were submitted to Novogene Co. Ltd and subjected to more stringent QC, being tested on a Qubit for concentration and run on an agarose gel and on the Agilent […] assess RNA quality and integrity. […] The total RNA was then enriched for poly-mRNA using oligo(dT) paramagnetic beads. DNA libraries were then constructed from this input mRNA using the NEBNext Ultra™ II RNA Library Prep Kit.
These libraries were then further tested by the Qubit for concentration and the Agilent 2100 for library size distribution and quality. In order to properly pool the libraries and load them onto sequencing lanes to ensure the correct number of reads per sample, an even more precise quantification of the library was done via qPCR, and the samples were loaded onto the NovaSeq 6000 platform for a paired-end sequencing run of 150 bp for each end (PE150). The loading concentrations were designed to obtain at least 6.0 Gb (which is the number of billion bases of raw data, determined by the number of reads multiplied by the length of each read). A mean of 7.4 Gb (median 7.3 Gb) raw sequencing data was obtained across all samples, with a minimum of 6.3 Gb and a maximum of 8.5 Gb raw data. Sequencing run data quality control was performed both by Novogene and by an in-house analysis. The raw data set was analyzed for parameters such as the distribution of base quality along the length of the sequencing read, the distribution of error rate along the length of the sequencing read. Reads containing adapter sequences, with N>10% (where N means “base cannot be determined”) and with a low quality (Qscore<=5) for 50% or more of its total bases were removed.

[7] = Table 1A, at a certain point during the study, N2

Row | SMILES | Age in days at 25% mortality [1] [days] | Age in days at 50% mortality [1] [days] | Age in days at 75% mortality [1] [days] | Age in days at 90% mortality [1] [days] | Age in days at 100% mortality [1] [days] | Death events [5, 7] | % Complete [5, 7] [%] | Death events ([5]; Table 1B, end of the study) | Maximum life span ([5]; end of the study) [days] | Median lifespan ([5]; end of the study) [days] | further results
1 | Oc1ccc(C=Cc2cc(O)cc(O)c2)cc1 [Resveratrol, reference compound] | 24.6 | 28.2 | 30.5 | 32.7 | 37.8 | – | – | – | – | – | Median lifespan ([1]; 50 μM): 28.2 days; Maximum life span ([1]; 50 μM): 36.6 days
2 | CNC(=O)Oc1ccc2c(c1)oc(=O)c1cc(OC(=O)NC)ccc12 [SND301] | – | – | – | – | – | 59 | 31.6 | 179 | 31 | 24 | ATP content [2]: 72-103%; Cytotoxicity (LDH) leakage [3]: 7-10%; Tolerability of exposure [4]: well tolerated; Effect on lifespan ([5]; 50 μM, in words): significantly increased life span; also recorded: significantly increased median lifespan; Surviving fraction ([5]; until day 24, compared with all groups): highest surviving fraction by a considerable margin
3 | CCNC(=O)Oc1ccc2c(c1)oc(=O)c1cc(OC(=O)NCC)ccc12 [SND302] | 24.2 | 28.2 | 31.0 | 33.0 | 37.9 | – | – | – | – | – | Median lifespan ([1]; 25 μM): 28.2 days; Mean lifespan ([1]; 25 μM, area under the survival curve): 27.0 days; Maximum life span ([1]; 25 μM): 36.1 days; Effect on lifespan ([1]; in words, compared to control): did not show a significant difference from the control; Significant differentially-expressed genes ([6]; Day 3, compared to the controls (Vehicle and Urolithin A)): 7-8 genes; Expression of gene C50F7.5 ([6]; Day 10): significantly upregulated; Significant differentially-expressed genes ([6]; Day 10, compared to the controls (Vehicle and Urolithin A)): 12-14 genes; Toxicity and stress response induction (transcriptome) ([6]; early exposure period): some signs of toxicity and stress response induction
4 | Cc1ccc2c(c1)sc(-c1ccc(N(C)C)cc1)[n+]2C.[Cl-] [Thioflavin, Thioflavin T] | – | – | – | – | – | 38 | 23.2 | 38 | 33 | 21 | –
